We go through 23 compounds from ChEMBL document CHEMBL5260832, “Hepatoprotective natural triterpenoids” (Eur J Med Chem, 2018).

What all share (assay type): functional
One assay concerns Hepatocyte. Description: Hepatoprotective activity against D-GaIN/LPS induced liver injury in rat hepatocytes assessed as cell death at 10 to 500 uM relative to control. Conditions: dose 10-500 µM.
For a further assay, the system named is L02. The experiment in a line: Hepatoprotective activity against D-GaIN-induced toxicity in human HL7702 cells assessed as inhibition of cell survival rate at 10 uM relative to control.
A further assay has as its system Mus musculus. The experiment in a line: Hepatoprotective activity against D-GaIN/CCl4 induced liver injury mouse model assessed as reduction in GPT level at 30 microg/kg, iv relative to control. Also on record: scale not given: the % may be the effect or the level left. The conditions noted are these: dose 30 µg/kg.

In the case of `C[C@@H]1O[C@@H](O[C@H]2[C@H](O[C@H]3[C@H](O[C@H]4CC[C@@]5(C)[C@@H](CC[C@]6(C)[C@@H]5CC=C5[C@@H]7CC(C)(C)[C@H](O[C@@H]8O[C@H](CO)[C@@H](O)[C@H](O)[C@H]8O)C[C@]7(C)CC[C@]56C)[C@@]4(C)CO)O[C@H](C(=O)O)[C@@H](O)[C@@H]3O)O[C@H](CO)[C@H](O)[C@@H]2O)[C@H](O)[C@H](O)[C@H]1O`, the Activity in the assay with Hepatocyte was determined as 0%.

On to `C[C@@H]1O[C@@H](O[C@H]2[C@H](O[C@H]3[C@H](O[C@H]4CC[C@@]5(C)[C@@H](CC[C@]6(C)[C@@H]5CC=C5[C@@H]7CC(C)(C)C[C@@H](O)[C@]7(C)CC[C@]56C)[C@@]4(C)CO)O[C@H](C(=O)O)[C@@H](O)[C@@H]3O)O[C@H](CO)[C@H](O)[C@@H]2O)[C@H](O)[C@H](O)[C@H]1O` [SOYASAPONIN I], for which the Activity in the assay on Hepatocyte was determined as 0%.

In the case of `C=C(C)[C@@H]1CC[C@]2(C(=O)O)CC[C@]3(C)[C@H](CC[C@@H]4[C@@]5(C)CC[C@H](O[C@@H]6O[C@H](C(=O)OCC)[C@@H](O)[C@H](O)[C@H]6O[C@@H]6OC[C@@H](O)[C@H](O)[C@H]6O)C(C)(C)[C@@H]5CC[C@]43C)[C@@H]12`, in the assay with L02, the Activity worked out at 32.8%.

On to `CC(C)=CCC[C@@](C)(O)[C@H]1CC[C@]2(C)[C@@H]1[C@H](O)C[C@@H]1[C@@]3(C)CC[C@H](O)C(C)(C)[C@@H]3[C@@H](O[C@@H]3O[C@H](CO)[C@@H](O)[C@H](O)[C@H]3O[C@@H]3O[C@@H](C)[C@H](O)[C@@H](O)[C@H]3O)C[C@]12C`, for which the Activity in the assay on Mus musculus is listed as 50%.

For `C[C@@H]1O[C@@H](O[C@H]2[C@H](O[C@H]3[C@H](O[C@H]4CC[C@@]5(C)[C@@H](CC[C@]6(C)[C@@H]5CC=C5[C@@H]7CC(C)(C)C[C@@H](O)[C@]7(C)CC[C@]56C)[C@@]4(C)CO)O[C@H](C(=O)O)[C@@H](O)[C@@H]3O)OC[C@@H](O)[C@@H]2O)[C@H](O)[C@H](O)[C@H]1O`, in the assay with Hepatocyte, the Activity is given as 0%.

In the case of `C[C@@H]1O[C@@H](O[C@H]2[C@H](O[C@H]3[C@H](O[C@H]4CC[C@]5(C)[C@H]6CC=C7[C@@H]8CC(C)(C)CC[C@]8(C(=O)O[C@@H]8O[C@H](CO)[C@@H](O)[C@H](O)[C@H]8O)CC[C@@]7(C)[C@]6(C)CC[C@H]5C4(C)C)O[C@H](C(=O)O)[C@@H](O)[C@@H]3O)O[C@H](CO)[C@@H](O)[C@@H]2O)[C@H](O)[C@H](O)[C@H]1O`, the Activity with L02 was determined as 87.3%.

On to `CCCCOC(=O)[C@H]1O[C@@H](O[C@H]2CC[C@]3(C)[C@H]4CC=C5[C@@H]6[C@@H](C)[C@H](C)CC[C@]6(C(=O)O[C@@H]6O[C@H](CO)[C@@H](O[C@@H]7O[C@@H](C)[C@H](O)[C@@H](O)[C@H]7O)[C@H](O)[C@H]6O)CC[C@@]5(C)[C@]4(C)CC[C@H]3C2(C)C)[C@H](O[C@@H]2O[C@H](CO)[C@@H](O)[C@H](O)[C@H]2O[C@@H]2O[C@@H](C)[C@H](O)[C@@H](O)[C@H]2O)[C@@H](O)[C@@H]1O`, for which the Activity in the assay on L02 stood at 32.2%.

On to `CCCCOC(=O)[C@H]1O[C@@H](O[C@H]2CC[C@]3(C)[C@H]4CC=C5[C@@H]6CC(C)(C)CC[C@]6(C(=O)O[C@@H]6O[C@H](CO)[C@@H](O)[C@H](O)[C@H]6O[C@@H]6OC[C@@H](O)[C@H](O)[C@H]6O)CC[C@@]5(C)[C@]4(C)CC[C@H]3C2(C)C)[C@H](O[C@@H]2O[C@H](CO)[C@@H](O)[C@H](O)[C@H]2O[C@@H]2O[C@@H](C)[C@H](O)[C@@H](O)[C@H]2O)[C@@H](O)[C@@H]1O`, for which the Activity in the assay on L02 worked out at 54.7%.

As to `C[C@@H]1O[C@@H](O[C@H]2[C@H](O[C@H]3[C@H](O[C@H]4CC[C@@]5(C)[C@@H](CC[C@]6(C)[C@@H]5CC=C5[C@@H]7CC(C)(C)[C@@H](O[C@@H]8OC[C@@H](O)[C@H](O)[C@H]8O)[C@@H](O)[C@]7(C)CC[C@]56C)[C@@]4(C)CO)O[C@H](C(=O)O)[C@@H](O)[C@@H]3O)O[C@H](CO)[C@H](O)[C@@H]2O)[C@H](O)[C@H](O)[C@H]1O`, the Activity with Hepatocyte is on record as 0%.

For `CC1(C)CC[C@]2(C(=O)O)CC[C@]3(C)C(=CC[C@@H]4[C@@]5(C)CC[C@H](O)[C@@](C)(CO)[C@@H]5CC[C@]43C)[C@@H]2C1` [HEDERAGENIN], in the assay on L02, the Activity was determined as 62.4%.

`CCOC(=O)[C@H]1O[C@@H](O[C@H]2CC[C@]3(C)[C@H]4CC=C5[C@@H]6CC(C)(C)CC[C@]6(C(=O)O)CC[C@@]5(C)[C@]4(C)CC[C@H]3C2(C)C)[C@H](O[C@@H]2O[C@H](CO)[C@@H](O)[C@H](O)[C@H]2O[C@@H]2OC[C@@H](O)[C@H](O)[C@H]2O)[C@@H](O)[C@@H]1O`: the Activity in the assay with L02 was found to be 44.8%.

Consider `CC1(C)C[C@H]2C3=CC[C@@H]4[C@@]5(C)C=CC(=O)C(C)(C)[C@@H]5CC[C@@]4(C)[C@]3(C)CC[C@@]2(C(=O)O)C[C@@H]1O`, for which the Activity in the assay with L02 worked out at 76.8%.

Consider `C[C@@H]1O[C@@H](O[C@H]2[C@H](O[C@H]3[C@H](O[C@H]4CC[C@@]5(C)[C@@H](CC[C@]6(C)[C@@H]5CC=C5[C@@H]7CC(C)(C)C[C@@H](O[C@@H]8O[C@@H](C)[C@H](O)[C@@H](O)[C@H]8O)[C@]7(C)CC[C@]56C)[C@@]4(C)CO)O[C@H](C(=O)O)[C@@H](O)[C@@H]3O)O[C@H](CO)[C@H](O)[C@@H]2O)[C@H](O)[C@H](O)[C@H]1O`, for which the Activity in the assay with Hepatocyte is listed as 0%.

Take `COC(=O)c1cc(OC)c2c(c1-c1c(CO)cc(OC)c3c1OCO3)OCO2` [BICYCLOL]: the Activity in the assay with L02 amounted to 26.2%.

Consider `C[C@@H]1O[C@@H](O[C@H]2[C@H](O[C@H]3[C@H](O[C@H]4CC[C@@]5(C)[C@@H](CC[C@]6(C)[C@@H]5CC=C5[C@@H]7C[C@@](C)(CO[C@@H]8O[C@H](CO)[C@@H](O)[C@H](O)[C@H]8O)C[C@@H](O)[C@]7(C)CC[C@]56C)[C@@]4(C)CO)O[C@H](C(=O)O)[C@@H](O)[C@@H]3O)O[C@H](CO)[C@H](O)[C@@H]2O)[C@H](O)[C@H](O)[C@H]1O`, for which the Activity in the assay on Hepatocyte was 0%.

For `CCCCOC(=O)[C@H]1O[C@@H](O[C@H]2CC[C@]3(C)[C@H]4CC=C5[C@@H]6CC(C)(C)CC[C@]6(C(=O)O[C@@H]6O[C@H](CO)[C@@H](O)[C@H](O)[C@H]6O)CC[C@@]5(C)[C@]4(C)CC[C@H]3C2(C)C)[C@H](O[C@@H]2O[C@H](CO)[C@@H](O)[C@H](O)[C@H]2O)[C@@H](O)[C@@H]1O[C@@H]1OC[C@H](O)[C@H](O)[C@H]1O`, the Activity with L02 was 48.3%.

As for `C[C@@H]1O[C@@H](O[C@H]2[C@H](O[C@H]3[C@H](O[C@H]4CC[C@@]5(C)[C@@H](CC[C@]6(C)[C@@H]5CC=C5[C@@H]7CC(C)(C)C[C@@H](O[C@@H]8O[C@H](CO)[C@@H](O)[C@H](O)[C@H]8O)[C@]7(C)CC[C@]56C)[C@@]4(C)CO)O[C@H](C(=O)O)[C@@H](O)[C@@H]3O)O[C@H](CO)[C@H](O)[C@@H]2O)[C@H](O)[C@H](O)[C@H]1O`, in the assay on Hepatocyte, the Activity worked out at 0%.

Take `CCOC(=O)[C@H]1O[C@@H](O[C@H]2CC[C@]3(C)[C@H]4CC=C5[C@@H]6CC(C)(C)CC[C@]6(C(=O)O[C@@H]6O[C@H](CO)[C@@H](O[C@@H]7O[C@@H](C)[C@H](O)[C@@H](O)[C@H]7O)[C@H](O)[C@H]6O)CC[C@@]5(C)[C@]4(C)CC[C@H]3C2(C)C)[C@H](O[C@@H]2O[C@H](CO)[C@@H](O)[C@H](O)[C@H]2O[C@@H]2O[C@@H](C)[C@H](O)[C@@H](O)[C@H]2O)[C@@H](O)[C@@H]1O`: in the assay on L02, the Activity is given as 81.4%.

Turning to `C[C@@H]1O[C@@H](O[C@H]2[C@H](O[C@H]3[C@H](O[C@H]4CC[C@]5(C)[C@H]6CC=C7[C@@H]8CC(C)(C)CC[C@]8(C(=O)O)CC[C@@]7(C)[C@]6(C)CC[C@H]5C4(C)C)O[C@H](C(=O)O)[C@@H](O)[C@@H]3O)O[C@H](CO)[C@@H](O)[C@@H]2O)[C@H](O)[C@H](O)[C@H]1O`, the Activity in the assay with L02 worked out at 56.8%.

Consider `C[C@@H]1O[C@@H](O[C@H]2[C@H](O[C@H]3[C@H](O[C@H]4CC[C@@]5(C)[C@@H](CC[C@]6(C)[C@@H]5CC=C5[C@@H]7CC(C)(C)CC(=O)[C@]7(C)CC[C@]56C)[C@@]4(C)CO)O[C@H](C(=O)O)[C@@H](O)[C@@H]3O)O[C@H](CO)[C@H](O)[C@@H]2O)[C@H](O)[C@H](O)[C@H]1O`, for which the Activity in the assay with Hepatocyte came out at 0%.

`C[C@@H]1O[C@@H](O[C@H]2[C@H](O[C@H]3[C@H](O[C@H]4CC[C@@]5(C)[C@@H](CC[C@]6(C)[C@@H]5CC=C5[C@@H]7CC(C)(C)[C@H](O[C@@H]8O[C@H](CO)[C@@H](O)[C@H](O)[C@H]8O)C[C@]7(C)CC[C@]56C)[C@@]4(C)CO)O[C@H](C(=O)O)[C@@H](O)[C@@H]3O)OC[C@@H](O)[C@@H]2O)[C@H](O)[C@H](O)[C@H]1O`: the Activity in the assay with Hepatocyte came out at 0%.

Consider `CCOC(=O)[C@H]1O[C@@H](O[C@H]2CC[C@]3(C)[C@H]4CC=C5[C@@H]6CC(C)(C)CC[C@]6(C(=O)O[C@@H]6O[C@H](CO)[C@@H](O)[C@H](O)[C@H]6O[C@@H]6O[C@H](COC(C)=O)[C@@H](O)[C@H](O)[C@H]6O)CC[C@@]5(C)[C@]4(C)CC[C@H]3C2(C)C)[C@H](O[C@@H]2O[C@H](CO)[C@@H](O)[C@H](O)[C@H]2O[C@@H]2O[C@@H](C)[C@H](O)[C@@H](O)[C@H]2O)[C@@H](O)[C@@H]1O`, for which the Activity in the assay on L02 was 75.7%.

As for `C=C(C)[C@@H]1CC[C@]2(C(=O)O[C@@H]3O[C@H](C(=O)OCC)[C@@H](O)[C@H](O)[C@H]3O[C@@H]3OC[C@@H](O)[C@H](O)[C@H]3O)CC[C@]3(C)[C@H](CC[C@@H]4[C@@]5(C)CC[C@H](O)C(C)(C)[C@@H]5CC[C@]43C)[C@@H]12`, the Activity with L02 was 48.3%.
